Measured values from patent publication US20260232767A1, “INTERLEUKIN-23 RECEPTOR ANTAGONIST PEPTIDES FOR USE IN THE TREATMENT OF PSORIASIS” (Janssen Pharmaceutica NV, priority 2023, published 2026).

Test system: subjects with moderate-to-severe plaque psoriasis
Assay: IGA score, Example 2
Format: in vivo, human
Conditions: for Subjects achieving IGA Score = 0 at Week 52 / Subjects achieving IGA Score = 0 or 1 at Week 52: non-responder imputation
Text: Described below is a multicenter, long-term extension (LTE), double-blind, dose-ranging, parallel group interventional study in participants from Example 1 to evaluate the long-term efficacy and safety of the hydrochloride salt of the compound of Formula (I) for the treatment of moderate-to-severe plaque psoriasis. Patients from Example 1 continued to receive the same dose of the compound of Formula (I) for an additional 36-week treatment period with a 4-week safety follow up period after the last administration of the compound of Formula (I). Patients randomized to placebo in Example 1 received the compound of Formula (I) at a dose of 100 mg QD starting at Week 16 of Example 1 (FIG. 21).
Secondary endpoints included additional change from baseline of Example 1 in PASI, IGA, and PSSD at Week 52, including the proportions of subjects that achieved PAST 90, PAST 100, an IGA score of cleared (0) or minimal (1), PSSD symptoms score=0, and PSSD signs score=0.

[1] = Placebo → 100 mg QD, crossed over at or after Week 16

CC(=O)NCCCC[C@@H]1NC(=O)[C@H](Cc2c[nH]c3c(C)cccc23)NC(=O)[C@H]([C@@H](C)O)NC(=O)[C@H](CC(N)=O)NC(=O)[C@@H](NC(C)=O)C(C)(C)SSC(C)(C)[C@@H](C(=O)N[C@@H](Cc2ccc(OCCN)cc2)C(=O)N[C@@H](Cc2ccc3ccccc3c2)C(=O)NC2(C(=O)N[C@@H](CCC(=O)O)C(=O)N[C@@H](CC(N)=O)C(=O)N[C@@H](Cc3cccnc3)C(=O)N(C)CC(N)=O)CCOCC2)NC1=O [IL-23 receptor antagonist peptide, Ac-[Pen]*-N-T-[W(7-Me)]-[Lys(Ac)]-[Pen]*-Phe[4-(2-aminoethoxy)]-[2-Nal]-[THP]-E-N-[3-Pal]-Sarc-NH2 (*[Pen]-[Pen]* formdisulfidebond)]
Subjects achieving IGA Score = 0 at Week 52 (25 mg BID): (19.5%)
Subjects achieving IGA Score = 0 or 1 at Week 52 (25 mg BID): (46.3%)
Subjects achieving IGA Score = 0 at Week 52 (25 mg QD): (14.0%)
Subjects achieving IGA Score = 0 or 1 at Week 52 (25 mg QD): (37.2%)
Subjects achieving IGA Score = 0 at Week 52 (50 mg QD): (23.3%)
Subjects achieving IGA Score = 0 or 1 at Week 52 (50 mg QD): (60.5%)
Subjects achieving IGA Score = 0 at Week 52 [1]: 11 (31.4%)
Subjects achieving IGA Score = 0 or 1 at Week 52 [1]: 23 (65.7%)
IGA Score ≤2 (‘Mild’or better), subjects (%) (Week 1, 25 mg BID, N=41): (7.3%)
IGA Score ≤2 (‘Mild’or better), subjects (%) (Week 1, 25 mg QD, N=43): (14.0%)
IGA Score = 0 (‘Cleared’) or 1 (‘Minimal’), subjects (%) (Week 1, 50 mg QD, N=43): (2.3%)
IGA Score ≤2 (‘Mild’or better), subjects (%) (Week 1, 50 mg QD, N=43): (16.3%)
IGA Score = 0 (‘Cleared’) or 1 (‘Minimal’), subjects (%) (Week 1, 100 mg BID, N=42): (2.4%)
IGA Score ≤2 (‘Mild’or better), subjects (%) (Week 1, 100 mg BID, N=42): (23.8%)
IGA Score = 0 (‘Cleared’) or 1 (‘Minimal’), subjects (%) (Week 1, 100 mg QD, N=43): (4.7%)
IGA Score ≤2 (‘Mild’or better), subjects (%) (Week 1, 100 mg QD, N=43): (9.3%)
IGA Score = 0 (‘Cleared’) or 1 (‘Minimal’), subjects (%) (Week 2, 25 mg BID, N=41): (2.4%)
IGA Score ≤2 (‘Mild’or better), subjects (%) (Week 2, 25 mg BID, N=41): (22.0%)
IGA Score ≤2 (‘Mild’or better), subjects (%) (Week 2, 25 mg QD, N=43): (20.9%)
IGA Score = 0 (‘Cleared’) or 1 (‘Minimal’), subjects (%) (Week 2, 50 mg QD, N=43): (7.0%)
IGA Score ≤2 (‘Mild’or better), subjects (%) (Week 2, 50 mg QD, N=43): (34.9%)
IGA Score = 0 (‘Cleared’) or 1 (‘Minimal’), subjects (%) (Week 2, 100 mg BID, N=42): (9.5%)
IGA Score ≤2 (‘Mild’or better), subjects (%) (Week 2, 100 mg BID, N=42): (33.3%)
IGA Score = 0 (‘Cleared’) or 1 (‘Minimal’), subjects (%) (Week 2, 100 mg QD, N=43): (4.7%)
IGA Score ≤2 (‘Mild’or better), subjects (%) (Week 2, 100 mg QD, N=43): (34.9%)
IGA Score = 0 (‘Cleared’) or 1 (‘Minimal’), subjects (%) (Week 4, 25 mg BID, N=41): (17.1%)
IGA Score ≤2 (‘Mild’or better), subjects (%) (Week 4, 25 mg BID, N=41): (51.2%)
IGA Score = 0 (‘Cleared’) or 1 (‘Minimal’), subjects (%) (Week 4, 25 mg QD, N=43): (9.3%)
IGA Score ≤2 (‘Mild’or better), subjects (%) (Week 4, 25 mg QD, N=43): (44.2%)
IGA Score = 0 (‘Cleared’) or 1 (‘Minimal’), subjects (%) (Week 4, 50 mg QD, N=43): (16.3%)
IGA Score ≤2 (‘Mild’or better), subjects (%) (Week 4, 50 mg QD, N=43): (48.8%)
IGA Score = 0 (‘Cleared’) or 1 (‘Minimal’), subjects (%) (Week 4, 100 mg BID, N=42): (38.1%)
IGA Score ≤2 (‘Mild’or better), subjects (%) (Week 4, 100 mg BID, N=42): (69.0%)
IGA Score = 0 (‘Cleared’) or 1 (‘Minimal’), subjects (%) (Week 4, 100 mg QD, N=43): (20.9%)
IGA Score ≤2 (‘Mild’or better), subjects (%) (Week 4, 100 mg QD, N=43): (65.1%)
IGA Score = 0 (‘Cleared’) or 1 (‘Minimal’), subjects (%) (Week 8, 25 mg BID, N=41): (26.8%)
IGA Score = 0 (‘Cleared’), subjects (%) (Week 8, 25 mg BID, N=41): (4.9%)
IGA Score ≤2 (‘Mild’or better), subjects (%) (Week 8, 25 mg BID, N=41): (73.2%)
IGA Score = 0 (‘Cleared’) or 1 (‘Minimal’), subjects (%) (Week 8, 25 mg QD, N=43): (27.9%)
IGA Score = 0 (‘Cleared’), subjects (%) (Week 8, 25 mg QD, N=43): (2.3%)
IGA Score ≤2 (‘Mild’or better), subjects (%) (Week 8, 25 mg QD, N=43): (55.8%)
IGA Score = 0 (‘Cleared’) or 1 (‘Minimal’), subjects (%) (Week 8, 50 mg QD, N=43): (44.2%)
IGA Score = 0 (‘Cleared’), subjects (%) (Week 8, 50 mg QD, N=43): (4.7%)
IGA Score ≤2 (‘Mild’or better), subjects (%) (Week 8, 50 mg QD, N=43): (74.4%)
IGA Score = 0 (‘Cleared’) or 1 (‘Minimal’), subjects (%) (Week 8, 100 mg BID, N=42): (64.3%)
IGA Score = 0 (‘Cleared’), subjects (%) (Week 8, 100 mg BID, N=42): (19.0%)
IGA Score ≤2 (‘Mild’or better), subjects (%) (Week 8, 100 mg BID, N=42): (78.6%)
IGA Score = 0 (‘Cleared’) or 1 (‘Minimal’), subjects (%) (Week 8, 100 mg QD, N=43): (46.5%)
IGA Score = 0 (‘Cleared’), subjects (%) (Week 8, 100 mg QD, N=43): (9.3%)
IGA Score ≤2 (‘Mild’or better), subjects (%) (Week 8, 100 mg QD, N=43): (72.1%)
IGA Score = 0 (‘Cleared’) or 1 (‘Minimal’), subjects (%) (Week 12, 25 mg BID, N=41): (43.9%)
IGA Score = 0 (‘Cleared’), subjects (%) (Week 12, 25 mg BID, N=41): (7.3%)
IGA Score ≤2 (‘Mild’or better), subjects (%) (Week 12, 25 mg BID, N=41): (78.0%)
IGA Score = 0 (‘Cleared’) or 1 (‘Minimal’), subjects (%) (Week 12, 25 mg QD, N=43): (25.6%)
IGA Score = 0 (‘Cleared’), subjects (%) (Week 12, 25 mg QD, N=43): (7.0%)
IGA Score ≤2 (‘Mild’or better), subjects (%) (Week 12, 25 mg QD, N=43): (72.1%)
IGA Score = 0 (‘Cleared’) or 1 (‘Minimal’), subjects (%) (Week 12, 50 mg QD, N=43): (51.2%)
IGA Score = 0 (‘Cleared’), subjects (%) (Week 12, 50 mg QD, N=43): (9.3%)
IGA Score ≤2 (‘Mild’or better), subjects (%) (Week 12, 50 mg QD, N=43): (81.4%)
IGA Score = 0 (‘Cleared’) or 1 (‘Minimal’), subjects (%) (Week 12, 100 mg BID, N=42): (66.7%)
IGA Score = 0 (‘Cleared’), subjects (%) (Week 12, 100 mg BID, N=42): (40.5%)
IGA Score ≤2 (‘Mild’or better), subjects (%) (Week 12, 100 mg BID, N=42): (85.7%)
IGA Score = 0 (‘Cleared’) or 1 (‘Minimal’), subjects (%) (Week 12, 100 mg QD, N=43): (53.5%)
IGA Score = 0 (‘Cleared’), subjects (%) (Week 12, 100 mg QD, N=43): (18.6%)
IGA Score ≤2 (‘Mild’or better), subjects (%) (Week 12, 100 mg QD, N=43): (81.4%)
IGA Score = 0 (‘Cleared’) or 1 (‘Minimal’), subjects (%) (Week 16, 25 mg BID, N=41): (51.2%)
IGA Score = 0 (‘Cleared’), subjects (%) (Week 16, 25 mg BID, N=41): (14.6%)
IGA Score ≤2 (‘Mild’or better), subjects (%) (Week 16, 25 mg BID, N=41): (73.2%)
IGA Score = 0 (‘Cleared’) or 1 (‘Minimal’), subjects (%) (Week 16, 25 mg QD, N=43): (39.5%)
IGA Score = 0 (‘Cleared’), subjects (%) (Week 16, 25 mg QD, N=43): (16.3%)
IGA Score ≤2 (‘Mild’or better), subjects (%) (Week 16, 25 mg QD, N=43): (67.4%)
IGA Score = 0 (‘Cleared’) or 1 (‘Minimal’), subjects (%) (Week 16, 50 mg QD, N=43): (58.1%)
IGA Score = 0 (‘Cleared’), subjects (%) (Week 16, 50 mg QD, N=43): (34.9%)
IGA Score ≤2 (‘Mild’or better), subjects (%) (Week 16, 50 mg QD, N=43): (81.4%)
IGA Score = 0 (‘Cleared’) or 1 (‘Minimal’), subjects (%) (Week 16, 100 mg BID, N=42): (64.3%)
IGA Score = 0 (‘Cleared’), subjects (%) (Week 16, 100 mg BID, N=42): (45.2%)
IGA Score ≤2 (‘Mild’or better), subjects (%) (Week 16, 100 mg BID, N=42): (81.0%)
IGA Score = 0 (‘Cleared’) or 1 (‘Minimal’), subjects (%) (Week 16, 100 mg QD, N=43): (62.8%)
IGA Score = 0 (‘Cleared’), subjects (%) (Week 16, 100 mg QD, N=43): (27.9%)
IGA Score ≤2 (‘Mild’or better), subjects (%) (Week 16, 100 mg QD, N=43): (79.1%)
IGA Score = 0 (‘Cleared’) or 1 (‘Minimal’), subjects (%) (Week 20, 25 mg BID, N=41): (48.8%)
IGA Score = 0 (‘Cleared’), subjects (%) (Week 20, 25 mg BID, N=41): (19.5%)
IGA Score ≤2 (‘Mild’or better), subjects (%) (Week 20, 25 mg BID, N=41): (75.6%)
IGA Score = 0 (‘Cleared’) or 1 (‘Minimal’), subjects (%) (Week 20, 25 mg QD, N=43): (44.2%)
IGA Score = 0 (‘Cleared’), subjects (%) (Week 20, 25 mg QD, N=43): (14.0%)
IGA Score ≤2 (‘Mild’or better), subjects (%) (Week 20, 25 mg QD, N=43): (65.1%)
IGA Score = 0 (‘Cleared’) or 1 (‘Minimal’), subjects (%) (Week 20, 50 mg QD, N=43): (55.8%)
IGA Score = 0 (‘Cleared’), subjects (%) (Week 20, 50 mg QD, N=43): (20.9%)
IGA Score ≤2 (‘Mild’or better), subjects (%) (Week 20, 50 mg QD, N=43): (81.4%)
IGA Score = 0 (‘Cleared’) or 1 (‘Minimal’), subjects (%) (Week 20, 100 mg BID, N=42): (61.9%)
IGA Score = 0 (‘Cleared’), subjects (%) (Week 20, 100 mg BID, N=42): (42.9%)
IGA Score ≤2 (‘Mild’or better), subjects (%) (Week 20, 100 mg BID, N=42): (81.0%)
IGA Score = 0 (‘Cleared’) or 1 (‘Minimal’), subjects (%) (Week 20, 100 mg QD, N=43): (58.1%)
IGA Score = 0 (‘Cleared’), subjects (%) (Week 20, 100 mg QD, N=43): (16.3%)
